Converted amounts (≈) assume the structure as drawn.
Columns and labels:
[1] = test system: M. tuberculosis IAR2 (mmpL3 S288T mutant); type: cell-based, Mycobacterium tuberculosis
[2] = test system: R506 (extensively drug resistant strain of M. tuberculosis); assay: microbe, parasite or virus in culture; type: cell-based; conditions: Mycobacterium tuberculosis; read-out: MIC R506 (XDR)
[3] = test system: TF274 (extensively drug resistant strain of M. tuberculosis); assay: microbe, parasite or virus in culture; type: cell-based; conditions: Mycobacterium tuberculosis; read-out: MIC TF274 (XDR)
[4] = test system: V2475 (multi-drug resistant strain of M. tuberculosis); assay: microbe, parasite or virus in culture; type: cell-based; conditions: Mycobacterium tuberculosis; read-out: MIC V2475 (MDR)
[5] = test system: KZN494 (multi-drug resistant strain of M. tuberculosis); assay: microbe, parasite or virus in culture; type: cell-based; conditions: Mycobacterium tuberculosis; read-out: MIC KZN494 (MDR)

Compound | Fold change in MIC for IAR2 [1] | MIC for IAR2 [1] | MIC [2] [µM] | MIC upshift for IAR2 versus H37Rv [1] [fold] | MIC [3] [µM] | MIC [4] [µM] | MIC [5] [µM] | MIC for IAR2 compared with H37Rv [1]
NCC[C@H](O)C(=O)N[C@@H]1C[C@H](N)[C@@H](O[C@H]2O[C@H](CN)[C@@H](O)[C@H](O)[C@H]2O)[C@H](O)[C@H]1O[C@H]1O[C@H](CO)[C@@H](O)[C@H](N)[C@H]1O [Amikacin] | 0 | 1 µg/mL |  |  |  |  |  | 
Cc1cc(C)c2cc(C(=O)NC3CCCCC3)[nH]c2c1 [Compound 3, N-Cyclohexyl-4,6-dimethyl-1H-indole-2-carboxamide] | ≧(512-1024) | ≧128 μg/mL | 0.46 (≈ 0.124 µg/mL) | ≥ 1024 | 0.46 (≈ 0.124 µg/mL) | 0.93 to 1.9 (≈ 0.251 to 0.514 µg/mL) | 3.7 (≈ 1 µg/mL) | 
Cc1cc(C)c2cc(C(=O)NC3CCCCCC3)[nH]c2c1 [Compound 11, N-Cycloheptyl-4,6-dimethyl-1H-indole-2-carboxamide] | 32-64 | 1 µg/mL | 0.055 (≈ 0.0156 µg/mL) |  | 0.055 (≈ 0.0156 µg/mL) | 0.11 (≈ 0.0313 µg/mL) | 0.11 (≈ 0.0313 µg/mL) | 
Cc1cc(C)c2cc(C(=O)NC3CCCCCCC3)[nH]c2c1 [Compound 12, N-Cyclooctyl-4,6-dimethyl-1H-indole-2-carboxamide] | 64 | 0.25 µg/mL | 0.0067 (≈ 0.002 µg/mL) |  | 0.026 (≈ 0.00776 µg/mL) |  |  | 
CC[C@@H](CO)NCCN[C@@H](CC)CO [Ethambutol] | 0 | 1 µg/mL |  |  |  |  |  | 
NNC(=O)c1ccncc1 [Isoniazid, reference compound] | 0 | 0.04 µg/mL |  |  |  |  |  | 
CO[C@H]1/C=C/O[C@@]2(C)Oc3c(C)c(O)c4c(O)c(c(/C=N/N5CCN(C)CC5)c(O)c4c3C2=O)NC(=O)/C(C)=C\C=C\[C@H](C)[C@H](O)[C@@H](C)[C@@H](O)[C@@H](C)[C@H](OC(C)=O)[C@@H]1C [Rifampin] | 0.25 | 0.03125 µg/mL |  |  |  |  |  | lower MIC value
CC(C)=CCC/C(C)=C/CNCCNC1C2CC3CC(C2)CC1C3 (stereo not shown) [SQ109] | 16 | 4 µg/mL |  |  |  |  |  | 
AU1235 |  | >64 µg/mL |  |  |  |  |  | 
BM212 | 2 | 4 µg/mL |  | 2 |  |  |  | 
Capreomycin | 0 | 1 µg/mL |  |  |  |  |  | 

— patent US20170044100A1, “INHIBITORS OF DRUG-RESISTANT MYCOBACTERIUM TUBERCULOSIS” (THE JOHNS HOPKINS UNIVERSITY, priority 2014, published 2017)
